Assays:
male Wistar rats = assay: Evaluation of effect on urinary excretion of sugar in rats (Example 8); type: in vivo; settings: rat, oral, 24 hours
Description: Five-week-old male Wistar rats (purchased from Charles River Japan, Inc.) were housed in metabolic cages for about one week prior to the experiment. A test compound was suspended in olive oil, so that solutions of the compound with concentrations of […] were prepared to have a dose of 5 ml/kg body weight of the rat. After the rats were not fed for 4 hours, the test compound was orally administered to the rats at a dosage of 10, 30 and 100 mg/kg at 11 a.m. Urine of the rat was collected for a given period of time from the time immediately after the administration to 24 hours after the administration, and the urine volume was measured. Subsequently, the glucose concentration in urine was determined by the glucose oxidase method and the daily amount of glucose excreted in urine per individual was calculated.
As the positive control compound, 3-(benzo[b]furan-5-yl)-2′,6′-dihydroxy-4′-methylpropiophenone 2′-O-(6-O-methoxycarbonyl-β-D-glucopyranoside) was used.

rat = settings: oral administration, increase of sugar excreted in urine, decrease of blood sugar; cited from earlier work

COC(=O)OC[C@H]1O[C@@H](Oc2cc(C)cc(O)c2C(=O)CCc2ccc3occc3c2)[C@H](O)[C@@H](O)[C@@H]1O [Positive Control Compound, 3-(benzo[b]furan-5-yl)-2′,6′-dihydroxy-4′-methylpropiophenone 2′-O-(6-O-methoxycarbonyl-β-D-glucopyranoside)]
The amount of glucose excreted in urine (male Wistar rats; 10 mg/kg): 2 mg | The amount of glucose excreted in urine (male Wistar rats; 30 mg/kg): 78 mg | The amount of glucose excreted in urine (male Wistar rats; 100 mg/kg): 274 mg | dose needed to exhibit the efficacy (rat): 100 mg/kg
